Peptide text beside a SMILES is read from it. * marks the point of attachment. Cbz = O=C(OCc1ccccc1)*
Experiments:
[1] = system: NF-κB DNA binding activity in MDA-MB-231 cells; experiment: EMSA of NF-κB DNA binding activity in MDA-MB-231 cells; details: parthenolide 1, 2 and 5 μM for 3 h
Procedure: (§2) Electrophoretic Mobility Shift Assays (EMSAs). […] Cells were collected by trypsinization, washed in phosphate-buffered saline and resuspended in 125 μl of 2 μgs/ml RNase and 300 μl of propidium iodide containing buffer (50 μg/ml propidium iodide, 1 mg/ml sodium citrate, 0.03% NP40). The amount of propidium iodide incorporated was determined by FAScan analysis and the cell cycle distribution was determined using ModFit computer Software. Cell cycle distribution analysis was performed in a single blinded manner. Only diploid cells were considered while calculating the percentage of cells at each phase of cell cycle. • H. Statistical Analysis.

HBL100 cells [2] = experiment: MTS cell survival assay, HBL100 cells; type: cell-based; details: Homo sapiens, HBL-100, HBL100, 18 h, single agent, read-out: Half-maximal growth-inhibitory concentration (IC50)
MDA-MB-231 cells = experiment: MTS cell survival assay, MDA-MB-231 cells; type: cell-based
Source text: (§1) The invention will be further described by reference to the following detailed examples wherein the following materials and methods were employed: • A. Breast Cancer Cell Lines. […] Electrophoretic Mobility Shift Assays (EMSAs). […] Antibodies for supershift assays were purchased from Santa Cruz Biotechnology (CA) or Upstate Biotechnology (NY). • D. Western Blotting. […] IκBα and Mn-SOD antibodies were purchased from Santa Cruz Biotechnology (CA) and Upstate Biotechnology, respectively. • E. Northern Blotting and RNase Protection. […] Twenty μgs of RNA were subjected to RNase protection using the hAPO-5 probe (PharMingen, San Diego, Calif.) as described by the manufacturers. • F. Drug Treatment, Cell Death Assays, Apoptosis Assay and PARP Cleavage. […] Apoptosis was measured by a histone-ELISA (Roche Diagnostics, Indianapolis, Ind.). […] Histone-DNA complexes in the supernatant were detected by ELISA. For the PARP cleavage assay, 5×10^5 cells were exposed to the indicated drugs for 24 h. […] Cells were collected by trypsinization, washed in phosphate-buffered saline and resuspended in 125 μl of 2 μgs/ml RNase and 300 μl of propidium iodide containing buffer (50 μg/ml propidium iodide, 1 mg/ml sodium citrate, 0.03% NP40). The amount of propidium iodide incorporated was determined by FAScan analysis and the cell cycle distribution was determined using ModFit computer Software. […]

HBL100 cells [3] = experiment: cell cycle distribution analysis, HBL100 cells; type: cell-based; details: HBL100 (data not shown)
Source text: as §1

[4] = system: PARP cleavage in HBL100 cells; experiment: PARP cleavage Western blot, HBL100 cells; type: cell-based; details: HBL100, 24 h, single agents: paclitaxel 1 nM and 5 nM, parthenolide 0.1 μM and 0.5 μM
Source text: as §1

LxSN11 cells [5] = experiment: cell death ELISA (apoptosis), LxSN11 cells; details: 18 h of paclitaxel treatment, culture supernatants
Procedure: Apoptosis was measured by ELISA.
(§3) To avoid loss of hypodiploid or other damaged cells during processing, the assay was performed with cell culture supernatants.

IκBαSR10 cells = experiment: cell death ELISA (apoptosis), IκBαSR10 cells; details: 18 h of paclitaxel treatment, culture supernatants
Procedure: Apoptosis was measured by ELISA.
as §3

p65−/− fibroblasts = experiment: cell cycle progression of p65−/− fibroblasts; details: for p65−/− G0/G1 / p65−/− S / p65−/− G2/M: 18 h
Procedure: as §2

wild type fibroblasts = experiment: cell cycle progression of wild type fibroblasts; details: for Wild type G0/G1 / Wild type G2/M / Wild type S: 18 h
Procedure: as §2

LxSN11 cells [6] = experiment: flow cytometry cell cycle distribution, LxSN11 cells; details: paclitaxel increased from 3 nM to 5 nM
Procedure: (§4) Apoptosis was measured by a histone-ELISA (Roche Diagnostics, Indianapolis, Ind.). […] Histone-DNA complexes in the supernatant were detected by ELISA. For the PARP cleavage assay, 5×10^5 cells were exposed to the indicated drugs for 24 h. […] Cells were collected by trypsinization, washed in phosphate-buffered saline and resuspended in 125 μl of 2 μgs/ml RNase and 300 μl of propidium iodide containing buffer (50 μg/ml propidium iodide, 1 mg/ml sodium citrate, 0.03% NP40). The amount of propidium iodide incorporated was determined by FAScan analysis and the cell cycle distribution was determined using ModFit computer Software. Cell cycle distribution analysis was performed in a single blinded manner. Only diploid cells were considered while calculating the percentage of cells at each phase of cell cycle. • H. Statistical Analysis. In synergy experiments, dose response curves for single agents were generated first.
(§5) Only diploid cells were considered while calculating the percentage of cells in different phases of the cell cycle.

IκBαSR6 cells = experiment: flow cytometry cell cycle distribution, IκBαSR6 cells; details: 5 nM paclitaxel, IκBαSR6, diploid cells only
Procedure: as §4, §5

LxSN11 and IκBαSR cells = experiment: flow cytometry cell cycle analysis, all cell types (LxSN11 and IκBαSR clones of MDA-MB-231); details: 3 nM paclitaxel
Procedure: as §4, §5

[7] = system: NF-κB DNA binding in HUVECs; experiment: electromobility gel shift assay of NF-κB DNA binding in HUVECs; details: three hours, bFGF 50 ng/mL, VEGF 100 ng/mL, rhuMAb VEGF 10 mg/mL
Procedure: HUVECs were plated on 100 mm plates and harvested in an exponential growth phase. […] The mixture was then electrophoresed. Specific NF-κB binding to DNA was identified by the presence of a signal seen at autoradiography. The protein-DNA complex was slower to migrate whereas unbound DNA and protein migrated off the gel.

breast cancer = details: cited from earlier work

With `CC(C)(C)c1ccc(S(=O)(=O)/C=C/C#N)cc1` [Bay 11-7085] the “ability to inhibit NF-κB DNA binding activity” value [1] was “inhibited”.

For `COc1cc(/C=C/C(=O)CC(=O)/C=C/c2ccc(O)c(OC)c2)ccc1O` [Curcumin], the “ability to inhibit NF-κB DNA binding activity” value [1] was “Only parthenolide, MG132 and Bay 11-7085 inhibited”.

With `CC(C)C[C@@H](C=O)NC(=O)[C@H](CC(C)C)NC(=O)[C@H](CC(C)C)NC(=O)OCc1ccccc1` [MG132] (Cbz-Leu-Leu-Leu-aldehyde) the “ability to inhibit NF-κB DNA binding activity” value [1] was “inhibited”.

For `CC(=O)N[C@@H](CS)C(=O)O` [N-acetyl cysteine], the “ability to inhibit NF-κB DNA binding activity” value [1] was “Only parthenolide, MG132 and Bay 11-7085 inhibited”.

In the case of `O=C(O[C@@H]1Cc2c(O)cc(O)cc2O[C@@H]1c1cc(O)c(O)c(O)c1)c1cc(O)c(O)c(O)c1` [epigallocatechin gallate], the “ability to inhibit NF-κB DNA binding activity” value [1] is reported as “Only parthenolide, MG132 and Bay 11-7085 inhibited”.

With `CC(=O)O[C@H]1C(=O)[C@@]2(C)[C@H]([C@H](OC(=O)c3ccccc3)[C@]3(O)C[C@H](OC(=O)[C@H](O)[C@@H](NC(=O)c4ccccc4)c4ccccc4)C(C)=C1C3(C)C)[C@]1(OC(C)=O)CO[C@@H]1C[C@@H]2O` [paclitaxel] the IC50 (HBL100 cells [2]) was 10 nM, the IC50 (MDA-MB-231 cells; Homo sapiens, MDA-MB-231, 18 h, MTS, single agent) was greater than 30 nM and the cells killed (MDA-MB-231 cells; MDA-MB-231, 30 nM or higher concentrations of paclitaxel) was 30%. For the same molecule, the G2/M arrest (HBL100 cells [3]) was “arrested at G2/M”, the PARP cleavage product [4] was “No PARP cleavage product was observed” and the “apoptosis by cell death ELISA” value (LxSN11 cells [5]) was “only a marginal increase in apoptosis”. For the same molecule, the “apoptosis by cell death ELISA” value (IκBαSR10 cells) was “substantial increase in apoptotic death”, the “effect on cell cycle distribution” value (p65−/− fibroblasts; p65−/− fibroblasts) was “had no effect” and the “p65−/− G0/G1” value (p65−/− fibroblasts; paclitaxel 1 nM) was 47 ± 2. For the same molecule, the “p65−/− S” value (p65−/− fibroblasts; paclitaxel 1 nM) was 53 ± 1, the “p65−/− G0/G1” value (p65−/− fibroblasts; paclitaxel 3 nM) was 39 ± 6 and the “p65−/− G2/M” value (p65−/− fibroblasts; paclitaxel 3 nM) was 1. For the same molecule, the “p65−/− S” value (p65−/− fibroblasts; paclitaxel 3 nM) was 61 ± 7, the “p65−/− G0/G1” value (p65−/− fibroblasts; paclitaxel 5 nM) was 47 ± 2 and the “p65−/− G2/M” value (p65−/− fibroblasts; paclitaxel 5 nM) was 14. The “p65−/− S” value (p65−/− fibroblasts; paclitaxel 5 nM) was 46 ± 6, the “p65−/− G0/G1” value (p65−/− fibroblasts; paclitaxel 10 nM) was 47 ± 2 and the “p65−/− G2/M” value (p65−/− fibroblasts; paclitaxel 10 nM) was 6 ± 4. For the same molecule, the “p65−/− S” value (p65−/− fibroblasts; paclitaxel 10 nM) was 48 ± 6, the “Wild type G0/G1” value (wild type fibroblasts; paclitaxel 1 nM) was 68 ± 4 and the “Wild type G2/M” value (wild type fibroblasts; paclitaxel 1 nM) was 17 ± 8. For the same molecule, the “Wild type S” value (wild type fibroblasts; paclitaxel 1 nM) was 20 ± 4, the “Wild type G0/G1” value (wild type fibroblasts; paclitaxel 3 nM) was 70 ± 3 and the “Wild type G2/M” value (wild type fibroblasts; paclitaxel 3 nM) was 14 ± 5. The “Wild type S” value (wild type fibroblasts; paclitaxel 3 nM) was 16 ± 1, the “Wild type G0/G1” value (wild type fibroblasts; paclitaxel 5 nM) was 71 ± 3 and the “Wild type G2/M” value (wild type fibroblasts; paclitaxel 5 nM) was 17 ± 6. For the same molecule, the “Wild type S” value (wild type fibroblasts; paclitaxel 5 nM) was 16 ± 4, the “Wild type G0/G1” value (wild type fibroblasts; paclitaxel 10 nM) was 73 ± 2 and the “Wild type G2/M” value (wild type fibroblasts; paclitaxel 10 nM) was 16 ± 6. For the same molecule, the “Wild type S” value (wild type fibroblasts; paclitaxel 10 nM) was 15 ± 2, the “effect on cell cycle distribution” value (wild type fibroblasts; wild type fibroblasts) was “had no effect” and the “cell cycle distribution pattern” value (LxSN11 cells [6]) was “did not alter the cell cycle distribution pattern”. For the same molecule, the “percentage of cells at G2/M” value (IκBαSR6 cells) was 70.37±14.9% and the hypodiploid cells (LxSN11 and IκBαSR cells) was “approximately 30%”.

With `CC(=O)CCCCn1c(=O)c2c(ncn2C)n(C)c1=O` [pentoxyphylline] the “ability to inhibit NF-κB DNA binding activity” value [1] was “Only parthenolide, MG132 and Bay 11-7085 inhibited”.

With VEGF the “effect on NF-κB DNA binding” value [7] was “did not alter baseline NF-κB DNA binding”.

For “bFGF: basic Fibroblast Growth Factor (R & D Systems) added to stimulate HUVECs”, the “effect on NF-κB DNA binding” value [7] was “induced greater DNA binding than VEGF”.

For “rhuMAb VEGF: anti-angiogenic agent provided by Genentech, used in the electromobility gel shift assay”, the “patients with tumor regression” value (breast cancer) is listed as 20% and the “effect on NF-κB DNA binding” value [7] is listed as “did not alter NF-κB DNA binding”.
